From patent US20230339890A1, “AMINO ALCOHOL COMPOUNDS AND USES THEREOF” (Kineta, Inc., priority 2020, published 2023)
pIC50: −log10 of the molar value.

Biological target: Recombinant human CYP51A1 (lanosterol-14a-demethylase) (Homo sapiens (Human), UniProt Q16850)
Assay: Inhibition of CYP51A1, fluorescent substrate BOMCC
Type: biochemical
Conditions: recombinant human CYP51A1 coexpressed with CYP reductase in bacterial membranes, 8-point concentration-response, read-out: CYP51 IC50
Source text: Method: Recombinant human CYP51A1 (lanosterol-14a-demethylase) enzyme was coexpressed with CYP reductase in bacterial membranes and the fluorescent substrate BOMCC (a nonnatural substrate that causes increases in fluorescence upon CYP51A1-dependent demethylation) was used to obtain 8-point dose concentration-response curves for each compound.

Sequence of Recombinant human CYP51A1 (lanosterol-14a-demethylase) (Q16850 whole entry): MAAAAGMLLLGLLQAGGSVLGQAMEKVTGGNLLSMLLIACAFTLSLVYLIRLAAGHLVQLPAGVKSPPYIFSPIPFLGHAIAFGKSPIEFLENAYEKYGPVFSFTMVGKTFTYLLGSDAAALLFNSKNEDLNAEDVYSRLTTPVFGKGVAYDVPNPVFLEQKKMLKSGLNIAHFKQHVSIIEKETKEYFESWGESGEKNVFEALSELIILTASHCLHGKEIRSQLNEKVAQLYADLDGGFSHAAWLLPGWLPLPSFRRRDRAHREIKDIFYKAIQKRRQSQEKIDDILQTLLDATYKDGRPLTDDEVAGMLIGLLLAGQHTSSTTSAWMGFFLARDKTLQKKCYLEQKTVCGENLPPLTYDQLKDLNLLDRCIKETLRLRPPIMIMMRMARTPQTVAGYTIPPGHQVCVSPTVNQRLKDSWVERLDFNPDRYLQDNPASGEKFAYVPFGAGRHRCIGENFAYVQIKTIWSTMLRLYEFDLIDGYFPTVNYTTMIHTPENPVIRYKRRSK

`CC(C)(C)OC(=O)NCCCN(C[C@@H](O)c1cccnc1)C(=O)Cc1ccc(C(F)(F)F)nc1` [compound 140, tert-butyl N-[3-[[(2S)-2-hydroxy-2-(3-pyridyl)ethyl]-[2-[6-(trifluoromethyl)-3-pyridyl]acetyl]amino]propyl]carbamate] and `CC(C)(C)OC(=O)NC1CCC(CN(C[C@@H](O)c2cccnc2)C(=O)Cc2ccc(C(F)(F)F)nc2)CC1` (stereo partly drawn) [compound 145, tert-butyl N-[4-[[[(2S)-2-hydroxy-2-(3-pyridyl)ethyl]-[2-[6-(trifluoromethyl)-3-pyridyl]acetyl]amino]methyl]cyclohexyl] carbamate] cannot be ordered by pIC50: ≥ 7.00 for the first, 6.00 to 7.00 for the second.

Compared with `COC(=O)N(CCc1ccc(C(F)(F)F)nc1)CC(O)c1cccnc1` (centres unmarked) [compound 28, methyl N-[2-hydroxy-2-(3-pyridyl)ethyl]-N-[2-[6-(trifluoromethyl)-3-pyridyl]ethyl]carbamate], `COC(=O)N(CCc1ccc(Cl)c(Cl)c1)CC(O)c1cccnc1` (centres unmarked) [compound 83, Methyl N-[2-(3,4-dichlorophenyl)ethyl] -N-[2-hydroxy-2-(3-pyridyl)ethyl]carbam ate] is higher in pIC50: < 6.00 for the first, 6.00 to 7.00 for the second. The second is the more potent here.

`O=C(Cc1ccc(C(F)(F)F)nc1)N(C[C@@H](O)c1cccnc1)C1COC1` [compound 78, N-[(2S)-2-hydroxy-2-(3-pyridyl)ethyl]-N-(oxetan-3-yl)-2-[6-(trifluoromethyl)-3-pyridyl]acetamide] and `O=C(Cc1ccc(C(F)(F)F)nc1)N(CC1COC1)C[C@@H](O)c1cccnc1` [compound 73, N-[(2S)-2-hydroxy-2-(3-pyridyl)ethyl]-N-(oxetan-3-ylmethyl)-2-[6-(trifluoromethyl)-3-pyridyl]acetamide] fall in the same range of pIC50: 6.00 to 7.00 for the first, 6.00 to 7.00 for the second.

`CC(=O)N1CCC(CN(C[C@@H](O)c2cccnc2)C(=O)Cc2ccc(C(F)(F)F)nc2)CC1` [compound 57, N-[(1-acetyl-4-piperidyl)methyl]-N-[(2S)-2-hydroxy-2-(3-pyridyl)ethyl]-2-[6-(trifluoromethyl)-3-pyridyl]acetamide] and `Cc1ccncc1C(O)CN(CC1COC1)C(=O)Cc1ccc(C(F)(F)F)nc1` (centres unmarked) [compound 89, N-[2-hydroxy-2-(4-methyl-3-pyridyl)ethyl] -N-(oxetan-3-ylmethyl)-2-[6-(trifluoromethyl)-3-pyridyl]acetamide] cannot be ordered by pIC50: < 6.00 for the first, < 6.00 for the second.

`CCCN(C[C@@H](O)c1cccnc1)C(=O)C1Cc2cc(Cl)c(Br)cc2C1` (stereo partly drawn) [compound 131, 5-bromo-6-chloro-N-[(2S)-2-hydroxy-2-(3-pyridyl)ethyl]-N-propyl-indane-2-carboxamide] and `CCCN(CC(O)c1cnccn1)C(=O)C1Cc2cc(Cl)c(Cl)cc2C1` (centres unmarked) [compound 129] cannot be ordered by pIC50: ≥ 7.00 for the first, 6.00 to 7.00 for the second.

Going from `CCCN(CC(O)c1ccnnc1)C(=O)Cc1ccc(Cl)c(Cl)c1` (centres unmarked) [compound 19] to `CCCN(CC(O)c1cccnc1)C(=O)Cc1ccc(Cl)c(Cl)c1` (centres unmarked) [compound 1, 2-(3,4-dichlorophenyl)-N-[2-hydroxy-2-(3-pyridyl)ethyl]-N-propyl-acetamide], the pIC50 rises from < 6.00 to ≥ 7.00. The second is the more potent here.

First: CCCN(CC(O)c1cccnn1)C(=O)Cc1ccc(Cl)c(Cl)c1 (single isomer, unassigned) [compound 36, 2-(3,4-dichlorophenyl)-N-[2-hydroxy-2-pyridazin-3-yl-ethyl]-N-propyl-acetamide]
Second: CCCN(CC(O)c1cccnn1)C(=O)Cc1ccc(C#N)c(Cl)c1 (single isomer, unassigned) [compound 53, 2-(3-chloro-4-cyanophenyl)-N-(2-hydroxy-2-pyridazin-3-yl-ethyl)-N-propyl-acetamide]
The pIC50 of the first is lower: < 6.00 for the first, 6.00 to 7.00 for the second.

First: CCCN(C[C@@H](O)c1cccnc1)C(=O)Cc1ccc(OC(F)(F)F)cn1 [compound 45, N-[(2S)-2-hydroxy-2-(3-pyridyl)ethyl]-N-propyl-2-[5-(trifluoromethoxy)-2-pyridyl]acetamide]
Second: CCCN(C[C@@H](O)c1cccnc1)C(=O)Cc1ccc(Cl)cn1 [compound 14, 2-(5-chloro-2-pyridyl)-N-[(2S)-2-hydroxy-2-(3-pyridyl)ethyl]-N-propyl-acetamide]
The pIC50 of the first is higher: ≥ 7.00 for the first, < 6.00 for the second. The first is the more potent here.

`CCCN(C[C@@H](O)c1cccnc1)C(=O)Cc1cncnc1` [compound 104, N-[(2S)-2-hydroxy-2-(3-pyridyl)ethyl]-N-propyl-2-pyrimidin-5-yl-acetamide] and `CCCN(C[C@@H](O)c1cccnc1)C(=O)Cc1cncc(Cl)c1` [compound 44, 2-(5-chloro-3-pyridyl)-N-[(2S)-2-hydroxy-2-(3-pyridyl)ethyl]-N-propyl-acetamide] cannot be ordered by pIC50: < 6.00 for the first, < 6.00 for the second.

First: CCCN(C(=O)Cc1ccc(Cl)c(Cl)c1)C(CO)c1ccc(=O)n(C)c1 (centres unmarked) [compound 122, 2-(3,4-dichlorophenyl)-N-[2-hydroxy-1-(1-methyl-6-oxo-3-pyridyl)ethyl]-N-propyl-acetamide]
Second: CCCN(CC(O)c1cccnn1)C(=O)Cc1ccc(Cl)c(Cl)c1 (centres unmarked) [compound 97]
The pIC50 of the first is lower: < 6.00 for the first, ≥ 7.00 for the second. The second is the more potent here.

`CC1(CN(C[C@@H](O)c2cccnc2)C(=O)Cc2ccc(Cl)c(Cl)c2)CC1` [compound 27, 2-(3,4-dichlorophenyl) -N-[(2S)-2-hydroxy-2-(3-pyridyl)ethyl]-N-[(1-methylcyclopropyl)methyl]acetamide] and `O=C(Cc1ccc(Cl)c(Cl)c1)N(CC1COC1)C[C@@H](O)c1cccnc1` [compound 25, 2-(3,4-dichlorophenyl) -N-[(2S)-2-hydroxy-2-(3-pyridyl)ethyl]-N-(oxetan-3-ylmethyl)acetamide] cannot be ordered by pIC50: ≥ 7.00 for the first, 6.00 to 7.00 for the second.

`CCCN(CC(O)c1cncc(Br)c1)C(=O)Cc1ccc(Cl)c(Cl)c1` (centres unmarked) [compound 103, N-[2-(5-bromo-3-pyridyl)-2-hydroxyethyl]-2-(3,4-dichlorophenyl)-N-propyl-acetamide] and `CCCN(CC(O)c1cncc(C#N)c1)C(=O)Cc1ccc(Cl)c(Cl)c1` (centres unmarked) [compound 111, N-[2-(5-cyano-3-pyridyl)-2-hydroxyethyl]-2-(3,4-dichlorophenyl)-N-propyl-acetamide] cannot be ordered by pIC50: < 6.00 for the first, < 6.00 for the second.

`CCCN(C[C@@H](O)c1cccnc1)C(=O)Cc1ccc2ccccc2c1` [compound 7, N-[(2S)-2-hydroxy-2-(3-pyridyl)ethyl]-2-(2-naphthyl)-N-propyl-acetamide] and `CCC(=O)N(CCc1ccc2ccccc2c1)CC(O)c1cccnc1` (centres unmarked) [compound 3] cannot be ordered by pIC50: ≥ 7.00 for the first, 6.00 to 7.00 for the second.

Compared with `CCCN(C[C@@H](O)c1cccnc1)C(=O)Cc1ccc(C#N)nc1` [compound 39, 2-(6-cyano-3-pyridyl)-N-[(2S)-2-hydroxy-2-(3-pyridyl)ethyl]-N-propyl-acetamide], `CCCN(C[C@@H](O)c1cccnc1)C(=O)Cc1ccc(Cl)c(C#N)c1` [compound 24, 2-(4-chloro-3-cyano-phenyl)-N-[(2S)-2-hydroxy-2-(3-pyridyl)ethyl]-N-propyl-acetamide] is higher in pIC50: < 6.00 for the first, 6.00 to 7.00 for the second. The second is the more potent here.

`CCCN(CC(O)c1cccnn1)C(=O)Cc1ccc(C(F)(F)F)nc1` (centres unmarked) [compound 32, N-(2-hydroxy-2-pyridazin-3-yl-ethyl)-N-propyl-2-[6-(trifluoromethyl)-3-pyridyl]acetamide] and `CCCN(CC(O)c1cncc(F)c1)C(=O)Cc1ccc(C(F)(F)F)nc1` (centres unmarked) [compound 112, N-[2-(5-fluoro-3-pyridyl)-2-hydroxyethyl]-N-propyl-2-[6-(trifluoromethyl)-3-pyridyl]acetamide] fall in the same range of pIC50: 6.00 to 7.00 for the first, 6.00 to 7.00 for the second.

`CCCN(C[C@@H](O)c1cccnc1)C(=O)Cc1ccc2scnc2c1` [compound 47, 2-(1,3-benzothiazol-5-yl)-N-[(2S)-2-hydroxy-2-(3-pyridyl)ethyl]-N-propyl-acetamide] and `CCCN(C[C@@H](O)c1cccnc1)C(=O)Cc1cnc(C(F)(F)F)nc1` [compound 124, N-[(2S)-2-hydroxy-2-(3-pyridyl)ethyl]-N-propyl-2-[2-(trifluoromethyl)pyrimidin-5-yl]acetamide] cannot be ordered by pIC50: 6.00 to 7.00 for the first, ≥ 7.00 for the second.

First: CCCN(CC(O)c1cncc(C(C)=O)c1)C(=O)Cc1ccc(C(F)(F)F)nc1 (centres unmarked) [compound 48, N-[2-(5-acetyl-3-pyridyl)-2-hydroxy-ethyl]-N-propyl-2-[6-(trifluoromethyl)-3-pyridyl]acetamide]
Second: CCCN(C[C@@H](O)c1cccnc1)C(=O)Cc1ccc(C(F)(F)F)nn1 [compound 38, N-[(2S)-2-hydroxy-2-(3-pyridyl)ethyl]-N-propyl-2-[6-(trifluoromethyl)pyridazin-3-yl]acetamide]
The pIC50 of the first is lower: < 6.00 for the first, 6.00 to 7.00 for the second.

`O=C(Cc1ccc(Cl)c(Cl)c1)N(C[C@@H](O)c1cccnc1)C1CC1` [compound 86, N-cyclopropyl-2-(3,4-dichlorophenyl)-N-[(2S)-2-hydroxy-2-(3-pyridyl)ethyl]acetamide] and `CC(C)(C)OC(=O)N(CCc1ccc(Cl)c(Cl)c1)CC(O)c1cccnc1` (centres unmarked) [compound 138, Tert-butyl N-[2-(3,4-dichlorophenyl)ethyl] -N-[2-hydroxy-2-(3-pyridyl)ethyl]carbam ate] fall in the same range of pIC50: 6.00 to 7.00 for the first, 6.00 to 7.00 for the second.

`CCCN(CC(O)c1cnccc1OC)C(=O)Cc1ccc(Cl)c(Cl)c1` (centres unmarked) [compound 109, 2-(3,4-dichlorophenyl)-N-[2-hydroxy-2-(4-methoxy-3-pyridyl)ethyl]-N-propyl-acetamide] and `CCCN(CC(O)c1cccnn1)C(=O)Cc1ccc(Cl)c(Cl)c1` (single isomer, unassigned) [compound 35, 2-(3,4-dichlorophenyl)-N-[2-hydroxy-2-pyridazin-3-yl-ethyl]-N-propyl-acetamide] cannot be ordered by pIC50: ≥ 7.00 for the first, 6.00 to 7.00 for the second.

`CCCN(CC(O)c1cccnn1)C(=O)Cc1ccc(C#N)c(Cl)c1` (centres unmarked) [compound 52, 2-(3-chloro-4-cyanophenyl)-N-(2-hydroxy-2-pyridazin-3-yl-ethyl)-N-propyl-acetamide] and `CCCN(C[C@@H](O)c1cccnc1)C(=O)N1Cc2cc(Cl)c(Cl)cc2C1` [compound 107, 5,6-dichloro-N-[(2S)-2-hydroxy-2-(3-pyridyl)ethyl]-N-propyl-isoindoline-2-carboxamide] cannot be ordered by pIC50: 6.00 to 7.00 for the first, ≥ 7.00 for the second.

With `CC(C)N(C[C@@H](O)c1cccnc1)C(=O)Cc1cnc(C(F)(F)F)nc1` [compound 94, N-[(2S)-2-hydroxy-2-(3-pyridyl)ethyl]-N-isopropyl-2-[2-(trifluoromethyl)pyrimidin-5-yl]acetamide] the pIC50 was 6.00 to 7.00.
